According to PubChem BioAssay (NCI):
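Test compounds were applied to cells in 96-well plates for 48 hours at 5 doses. TGI: concentration producing complete growth inhibition.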

Tests used:
Assay in all cases: inhibition of tumour cell growth, NCI panel, 48 h
[1] = tested on: A498 renal
[2] = tested on: A549 NSCLC
[3] = tested on: ACHN renal
[4] = tested on: CAKI-1 renal
[5] = tested on: CCRF-CEM leukemia
[6] = tested on: COLO 205 colon
[7] = tested on: DU-145 prostate
[8] = tested on: EKVX NSCLC
[9] = tested on: HCT-116 colon
[10] = tested on: HCT-15 colon
[11] = tested on: HL-60(TB) leukemia
[12] = tested on: HOP-62 NSCLC
[13] = tested on: HOP-92 NSCLC
[14] = tested on: HS 578T breast
[15] = tested on: HT29 colon
[16] = tested on: IGROV1 ovarian
[17] = tested on: K-562 leukemia
[18] = tested on: KM12 colon
[19] = tested on: LOX IMVI melanoma
[20] = tested on: M14 melanoma
[21] = tested on: MALME-3M melanoma
[22] = tested on: MCF7 breast
[23] = tested on: MDA-MB-231 breast
[24] = tested on: MDA-MB-435
[25] = tested on: MDA-N
[26] = tested on: MOLT-4 leukemia
[27] = tested on: NCI-H226 lung
[28] = tested on: NCI-H23 lung
[29] = tested on: NCI-H460 lung
[30] = tested on: NCI/ADR-RES ovarian
[31] = tested on: OVCAR-3 ovarian
[32] = tested on: OVCAR-4 ovarian
[33] = tested on: OVCAR-5 ovarian
[34] = tested on: OVCAR-8 ovarian
[35] = tested on: PC-3 prostate
[36] = tested on: RPMI-8226 leukemia
[37] = tested on: RXF 393 renal
[38] = tested on: SF-268 CNS
[39] = tested on: SF-295 CNS
[40] = tested on: SF-539 CNS
[41] = tested on: SK-MEL-2 melanoma
[42] = tested on: SK-MEL-28 melanoma
[43] = tested on: SK-MEL-5 melanoma
[44] = tested on: SK-OV-3 ovarian
[45] = tested on: SN12C renal
[46] = tested on: SNB-19 CNS
[47] = tested on: SR leukemia
[48] = tested on: SW-620 colon
[49] = tested on: TK-10 renal
[50] = tested on: U251 CNS
[51] = tested on: UACC-257 melanoma
[52] = tested on: UACC-62 melanoma
[53] = tested on: UO-31 renal
[54] = tested on: 786-0 renal
[55] = tested on: BT-549 breast
[56] = tested on: HCC-2998 colon
[57] = tested on: SNB-75 CNS
[58] = tested on: NCI-H522 lung

Measured: TGI

O=C1OC(c2ccc(O)c(F)c2)(c2ccc(O)c(F)c2)c2cccc3cccc1c23
10.1 µM: [4]
19.4 µM: [8]
> 25 µM: [1] | [2] | [3] | [5] | [6] | [7] | [9] | [10] | [12] | [13] | [14] | [15] | [16] | [17] | [18] | [19] | [20] | [21] | [22] | [23] | [24] | [25] | [26] | [27] | [28] | [29] | [30] | [31] | [33] | [34] | [35] | [36] | [37] | [38] | [39] | [40] | [41] | [42] | [43] | [44] | [45] | [46] | [47] | [48] | [49] | [50] | [51] | [52] | [53]
0.193 µM: [32]
18.9 µM: [11]

O=C(O)C(C(C(=O)O)P(=O)(O)O)P(=O)(O)O (stereo not drawn)
> 100 µM: [54] | [1] | [2] | [3] | [55] | [5] | [6] | [7] | [8] | [56] | [9] | [10] | [11] | [13] | [14] | [15] | [16] | [17] | [18] | [19] | [20] | [21] | [22] | [24] | [25] | [26] | [27] | [31] | [32] | [33] | [34] | [35] | [36] | [38] | [40] | [41] | [42] | [43] | [44] | [46] | [57] | [47] | [48] | [49] | [50] | [52] | [53]

CC(=O)OC1COC(n2c3ccccc3c3ccc4c5ccccc5[nH]c4c32)C(OC(C)=O)C1OC(C)=O (stereo not drawn)
74.2 µM: [50]
37.9 µM: [18]
> 100 µM: [2] | [55] | [5] | [6] | [56] | [9] | [10] | [24] | [25] | [26] | [28] | [31] | [32] | [33] | [36] | [41] | [42] | [43] | [46] | [48] | [51] | [52] | [53]
52.1 µM: [44]
87.3 µM: [13]
82.4 µM: [17]
57.6 µM: [29]
33.2 µM: [57]
44.6 µM: [58]
65.9 µM: [4]
77.7 µM: [1]
53.3 µM: [12]
33.3 µM: [39]
30.8 µM: [16]
96.5 µM: [35]
62.8 µM: [15]
